Data on one compound can be found in US20100168041A1, “COMBINATION OF MONOSACCHARIDES AND DESQUAMATING AGENTS, AND USE THEREOF” (L'OREAL, priority 2008, published 2010).

In test [1] the test system is type I procollagen. Put plainly: Synthesis of procollagen 1 in reconstructed skin (indirect immunofluorescence). Conditions: for procollagen 1 synthesis: reconstructed skin. The test is classed as cell-based, human. The procedure: Conventional detection via indirect immunofluorescence of type I procollagen in the dermis of the reconstructed skin was also performed on other series of frozen sections (anti-procoll 1 antibody (MAB 1912 Millipore)+FTIC-coupled conjugate (112-095-068 Jackson Immunoresearch)). In order to obtain bearings within the cutaneous architecture during the microscopic examination of the sections, the cell nuclei of the keratinocytes and fibroblasts are localized by staining them with propidium iodide, as described above. Three frozen sections are prepared at random on each reconstructed skin and on each section, and two microscopic fields (25× objective lens) are analysed by fluorescence microscopy and photographed. The levels of fluorescence proportional to the amount of type I procollagen are compared between the control skin and the skin treated with rhamnose.

Test [2] relates to dermal fibroblasts of the reconstructed skin. Put plainly: Proliferation of fibroblasts in whole reconstructed skin (propidium iodide count). It counts as cell-based, human. Conditions: 5 mM, within 48 hours of treatment. From the text: Rhamnose was studied on a model of whole reconstructed skin in order to measure its anti-ageing efficacy on the dermal compartment.
Briefly, the model of reconstructed skin used is that described by Bell et al. (Bell E. et al., The reconstitution of living skin, J. Invest. Dermatol., 1983, July; 81): it includes a dermal equivalent on which is reconstructed a multistratified epidermis; the dermal equivalent is manufactured from acid-soluble collagen, culture medium containing serum and normal adult human fibroblasts. After 5 days of shrinkage, this equivalent is inoculated with keratinocytes and then cultured for 6 days in immersion and for 7 days in emersion in order to obtain a multistratified and differentiated epidermis having a horny layer.
The reconstructed skin is treated with 5 mM rhamnose for 2 days and 5 days in the culture medium; after the treatment, the reconstructed skins are included in Tissue Tek in order to produce frozen sections 7 μm thick with a cryostat. […] Three frozen sections are prepared at random on each reconstructed skin; on each section, two microscopic fields (25× objective lens) are analysed by fluorescence microscopy and photographed. The dermal fibroblasts are thus counted for each reconstructed skin on six images in total representing the six microscopic fields considered. […]

The subject of test [3] is keratinocytes (HaCat line). Description: Proliferation of keratinocytes (Cyquant, Nile red, XTT markers). It counts as cell-based. Conditions: keratinocytes cultured in medium depleted in growth factors, vs untreated control. As for the experimental part: The keratinocytes (HaCat line) are cultured under two conditions: whole defined culture medium (standard condition) and culture medium deficient in growth factors. This deficient medium gives rise to a controlled delay in cell proliferation. Under these conditions, it is then possible to measure the effects of compounds capable of compensating for the deficiency in growth factors of the culture medium and thus of relaunching the cell multiplication and/or of stimulating cell metabolism.
The keratinocyte proliferation is measured by means of three markers on the same cell population: the level of DNA, which is proportional to the number of cells (Cyquant probe), the level of constituent polar lipids of cell membranes (Nile red probe) and the mitochondrial respiration, which reflects the general cell metabolism (XTT probe).

As to `C[C@H](O)[C@H](O)[C@@H](O)[C@@H](O)C=O` [rhamnose, Rhamnose], in test [1] (1 mM for 120 hours), the “green fluorescence (proportional to amount of type I procollagen) vs control skin” value is reported as “marked increase” and the “synthesis of type I procollagen by the fibroblasts” value is reported as “greatly stimulated”. Further, in test [1] (1 mM), the “procollagen 1 synthesis” value is given as “stimulation of procollagen 1 synthesis”. Also, the “procollagen 1 synthesis” value in test [1] (5 mM) is listed as “stimulation of procollagen 1 synthesis”. The “growth of the dermal fibroblasts” value in test [2] is recorded as “induces stimulation of growth”. Further, the keratinocyte proliferation entry in test [3] is given as “activate keratinocyte proliferation”.
